Consider three compounds from ChEMBL document CHEMBL4813952, “Axial Chiral Binaphthoquinone and Perylenequinones from the Stromata of Hypocrella bambusae Are SARS-CoV-2 Entry Inhibitors” (J Nat Prod, 2021).

Activity calls are given as the source filed them. The calls are words filed in the database; no cut-off is given here.

In this assay the test system is Vesicular stomatitis virus. Put plainly: Antiviral activity against pseudotype VSV harbouring glycoprotein infected in human 293T/ACE2 cells assessed as inhibition of viral infection measured after 48 hrs by luciferase reporter gene assay. It counts as functional, organism-based. For orientation: In a reporter assay the amount or activity of a reporter protein is the signal.
As to `COC1=C(CC(C)=O)C(=O)c2c(c(O)cc(OC)c2-c2c(OC)cc(O)c3c2C(=O)C(CC(C)=O)=C(OC)C3=O)C1=O`, the outcome was inactive. Under `COc1c(O)c2c(=O)cc(OC)c3c4c(OC)cc(=O)c5c(O)c(OC)c6c(c(c1C[C@](C)(O)[C@H]6C(C)=O)c23)c54` stands “inactive”. The same measure for `COc1c2c3c4c(c(OC)c(=O)c5c(O)cc(OC)c(c6c(OC)cc(O)c(c1=O)c63)c54)[C@@H](C(C)=O)[C@@](C)(O)C2` [HYPOCRELLIN A]: “inactive”.
